# Values joined by “and” are separate entries in the source; they are usually repeats but may differ in a detail not shown here. Equal values may be shown once.
# Experiments:
# FSH = assay: Example 8: FSH levels; format: in vivo, human;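 also: FSH determined at every study visit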
# Experimental: Patients on leuprorelin received their final injection at week 37, day 1, and the week 49, day 1 visit was considered the end of leuprorelin exposure. Patients receiving leuprorelin at visits at 16 (EOT), 20 (follow-up visit), and 24 (EOS) weeks after the last leuprorelin injection.
# FSH levels were also measured at each visit.
# healthy men = assay: Example 7: safety and tolerability in healthy men
# Experimental: The 40 mg dose was administered once per day with a single load dose of 360 mg on Day 1 of the 14 days of treatment administration. For the 20 mg dosages, one 20 mg dose was administered with loading doses of 320 mg on Day 1, 240 mg on Day 2, and 160 mg on Day 3, and the other 20 mg dose was administered with loading doses of 320 mg on Day 1 and 160 mg on Day 2. […] The 40 mg dose was administered with loading doses of 320 mg and 160 mg on Days 1 and 2 of treatment, respectively.
# [1] = Example 7: serum testosterone lowering in healthy men; format: in vivo; conditions: male, human, plasma, oral, maintenance doses of 80 mg or greater
# serum LH = assay: Example 7: serum LH in healthy men; format: in vivo, human
# Experimental: FSH, DHT, and insulin-like growth factor 1 (IGF-1; Parts 3 and 4 only) were measured in a subset of samples. Serum testosterone was assayed using a conventional immunoassay for screening (LLOQ=0.4 nmol/L). A validated LC/MS/MS method, with an LLOQ of 0.173 nmol/L and a ULOQ of 10.425 nmol/L, was used for all subsequent baseline (i.e., the subject's serum hormone levels prior to treatment commencing) and postdose measurements.
# LH = assay: Example 9: LH; format: in vivo, human
# Experimental: Eligible male patients were aged ≥18 years with a histologically confirmed diagnosis of localized, intermediate-risk prostate cancer, for whom 6-month neoadjuvant and adjuvant androgen deprivation therapy (ADT) to external beam radiation therapy (EBRT) was indicated. The criteria for establishing intermediate-risk prostate cancer included the presence of one of the following, without any high-risk feature: T2b-T2c disease, Gleason score 7, or prostate-specific antigen (PSA) 10-20 ng/mL. […] Based on investigator discretion and clinical assessment of the patient's overall medical and disease status, participation was allowed for older patients with high-risk disease (e.g., based on Gleason score or tumor status) who were deemed likely to benefit from 6 months of neoadjuvant/adjuvant ADT.
# Both treatment arms received treatment for 24 weeks. […] EBRT began no later than day 1, week 17.
# Patients were evaluated every 4 weeks during the treatment period (including day 1, week 25), at end of treatment (defined as week 29), during follow-up (week 33), and at end of study (EOS).
# Samples for testosterone, luteinizing hormone (LH), FSH, and PSA concentrations were taken at screening, on day 1 of the first week (additionally days 2 and 4 for testosterone and LH), and on day 1 of weeks 2, 3, 5, 9, 13, 17, 21, 25, 29, 33, and 37 thereafter.
# FIG. 22 = assay: FIG. 22
# Description: Table printed on a drawing sheet, FIG. 22
# First reader's note: The rows 'Plasma' and 'Urine' are section headings giving the matrix; the raised marks a and c are printed, but their footnotes are not on the sheet, and the meaning of the values in brackets is not stated.)
# [2] = Example 6: plasma concentration of unchanged Compound 1 (LC-MS/MS); format: in vivo, human
# Experimental: Subjects in Cohort 1 received a load dose of 320 mg and a maintenance dose of 80 mg; subjects in Cohort 2 received a load dose of 320 mg and a maintenance dose of 120 mg; subjects in Cohort 3 received a load dose of 320 mg and a maintenance dose of 160 mg; and subjects in Cohort 4 received a load dose of 360 mg and a maintenance dose of 120 mg.
# In addition to the safety assessments, efficacy assessments were also performed according to the study schedule, and the Compound 1 formulation was administered until each subject met the discontinuation criteria.
# rats = conditions: rat, in vivo
# [3] = Compound 1 Total, Week 2, Day 1
# [4] = Compound 1 Total, Week 5, Day 1
# [5] = Compound 1 Total, Week 13, Day 1
# [6] = Compound 1 Total, Week 25, Day 1
# [7] = Compound 1 Total, Week 49, Day 1
structure (smiles),measurement,setting,value
"CONC(=O)Nc1ccc(-c2sc3c(c2CN(C)C)c(=O)n(-c2ccc(OC)nn2)c(=O)n3Cc2c(F)cccc2F)cc1 [Compound 1, N-(4-(1-(2,6-difluorobenzyl)-5-((dimethylamino)methyl)-3-(6-methoxy-3-pyridazinyl)-2,4-dioxo-1,2,3,4-tetrahydrothieno[2,3-d]pyrimidin-6-yl)phenyl)-N′-methoxyurea]",FSH Mean (Std Dev),"FSH; 80 mg QD, Baseline",14.729 (14.3473) IU/L
same,FSH Median,"FSH; 80 mg QD, Baseline",9.550 IU/L
same,FSH Mean (Std Dev),"FSH; 80 mg QD, Week 2, Day 1",3.112 (3.0612) IU/L
same,FSH Median,"FSH; 80 mg QD, Week 2, Day 1",2.100 IU/L
same,FSH Mean (Std Dev),"FSH; 80 mg QD, Week 5, Day 1",1.248 (2.6737) IU/L
same,FSH Median,"FSH; 80 mg QD, Week 5, Day 1",0.400 IU/L
same,FSH Mean (Std Dev),"FSH; 80 mg QD, Week 13, Day 1",1.137 (2.4242) IU/L
same,FSH Median,"FSH; 80 mg QD, Week 13, Day 1",0.500 IU/L
same,FSH Mean (Std Dev),"FSH; 80 mg QD, Week 25, Day 1",1.090 (0.9932) IU/L
same,FSH Median,"FSH; 80 mg QD, Week 25, Day 1",0.800 IU/L
same,FSH Mean (Std Dev),"FSH; 80 mg QD, Week 49, Day 1",1.802 (1.3956) IU/L
same,FSH Median,"FSH; 80 mg QD, Week 49, Day 1",1.450 IU/L
same,FSH Median,"FSH; 120 mg QD, Baseline",11.050 IU/L
same,FSH Mean (Std Dev),"FSH; 120 mg QD, Week 2, Day 1",3.183 (2.8956) IU/L
same,FSH Median,"FSH; 120 mg QD, Week 2, Day 1",2.300 IU/L
same,FSH Mean (Std Dev),"FSH; 120 mg QD, Week 5, Day 1",1.035 (1.0479) IU/L
same,FSH Median,"FSH; 120 mg QD, Week 5, Day 1",0.600 IU/L
same,FSH Mean (Std Dev),"FSH; 120 mg QD, Week 13, Day 1",0.908 (0.8104) IU/L
same,FSH Median,"FSH; 120 mg QD, Week 13, Day 1",0.600 IU/L
same,FSH Mean (Std Dev),"FSH; 120 mg QD, Week 25, Day 1",1.344 (0.9675) IU/L
same,FSH Median,"FSH; 120 mg QD, Week 25, Day 1",1.200 IU/L
same,FSH Mean (Std Dev),"FSH; 120 mg QD, Week 49, Day 1",1.938 (1.2169) IU/L
same,FSH Median,"FSH; 120 mg QD, Week 49, Day 1",1.600 IU/L
same,FSH range over the course of 48 weeks,"FSH; 120 mg dose, >10 mIU/mL at baseline",0.6-1.6 mIU/mL
same,FSH Mean (Std Dev),"FSH; Compound 1 Total, Baseline",15.269 (13.5920) IU/L
same,FSH Median,"FSH; Compound 1 Total, Baseline",9.850 IU/L
same,FSH Mean (Std Dev),FSH; [3],3.147 (2.9653) IU/L
same,FSH Median,FSH; [3],2.150 IU/L
same,FSH Mean (Std Dev),FSH; [4],1.143 (2.0379) IU/L
same,FSH Median,FSH; [4],0.550 IU/L
same,FSH Mean (Std Dev),FSH; [5],1.025 (1.8164) IU/L
same,FSH Median,FSH; [5],0.500 IU/L
same,FSH Mean (Std Dev),FSH; [6],1.215 (0.9838) IU/L
same,FSH Median,FSH; [6],0.900 IU/L
same,FSH Mean (Std Dev),FSH; [7],1.867 (1.3077) IU/L
same,FSH Median,FSH; [7],1.500 IU/L
same,median FSH,FSH; after 48 weeks of treatment,1.62 mIU/mL
same,most common treatment emergent adverse events,healthy men; across all dose cohorts,"bradycardia, hot flush, and headache"
same,changes in QT/QTc intervals,healthy men; in vivo,consistent with those described in the literature with other medical castration agents
same,most common drug-related TEAE,healthy men; in vivo,hot flash
same,overall safety and tolerability,healthy men; single and multiple doses,safe and well tolerated
same,"deaths, SAEs or severe AEs",healthy men; single dose or multiple dose for 14 or 28 days,"no deaths, serious adverse events (SAEs), or severe AEs"
same,transaminases,healthy men; without symptoms or changes in total bilirubin,Mild to moderate transaminase elevations
same,concentration at 28 days,[1],> 4 ng/mL
same,mean serum LH at end of 16 days,"serum LH; Part 2, 80 mg, baseline 4.57 IU/L",0.33 IU/L
same,mean serum LH at end of 16 days,"serum LH; Part 2, 180 mg, baseline 3.90 IU/L",0.23 IU/L
same,Median LH,LH; Baseline,4.7 mlU/mL
same,Median LH,LH; Week 24,0.1 mlU/mL
same,mean LH level,"LH; Week 25, Day 1",0.325 IU/L
same,Median LH,LH; Week 28/EOT visit,3.1 mlU/mL
same,Median LH,LH; Week 32/follow-up,8.3 mlU/mL
same,Median LH,LH; Week 36/EOS,10.7 mlU/mL
same,AUC0-24 (ng•h/mL),FIG. 22,1358 (53.1) ng•h/mL and 1878 (51.9) ng•h/mL
same,CLr (L/h),FIG. 22,7.29 (13.2) L/h and 7.25 (36.2) L/h and 7.36 (25.9) L/h
same,Fe (%),FIG. 22,0.934 (39.4) % and 2.20 (74.7) % and 2.61 (62.3) % and 3.43 (29.4) %
same,median Tmax,"[2]; Part A Day 1, load dose 320 mg, across cohorts",1.5 h
same,"mean Cmax, Ctrough and mean plasma AUC24 versus dose","[2]; Part A Days 14 and 28, 80 to 160 mg QD",generally increased proportionately with dose
same,median Tmax,"[2]; Part A Days 14 and 28, maintenance 80 to 160 mg QD",0.5 to 2.0 h
same,Tmax,"[2]; male, human, plasma, oral, Part A Day 1, load dose 320 mg, across cohorts, read-out: median Tmax",1 h
same,half-life,"[2]; male, human, plasma, oral, Part A Day 28, across cohorts, read-out: mean plasma T1/2",66.5 to 78.1 h
same,adverse effect observed in non-clinical toxicity studies,rats,phospholipidosis

# Reference: patent US12629370B2, “Treatment of prostate cancer” (Sumitomo Pharma Co., Ltd., priority 2016, dated 2026)
